≈ marks a conversion by molar mass, not a printed value.
How the values were obtained:
[1] = system: Mycobacterium tuberculosis; assay: Antimycobacterial activity against Mycobacterium tuberculosis H37Rv after 10 days by microbroth dilution method; format: functional; details: 240 h
[2] = Acute toxicity in mouse administered as single po dose; format: organism-based; details: in vivo
Mycobacterium avium = assay: Antimycobacterial activity against Mycobacterium avium after 10 days by microbroth dilution method; format: functional; details: 240 h
Mycolicibacter terrae = assay: Antimycobacterial activity against Mycobacterium terrae after 10 days by microbroth dilution method; format: functional; details: 240 h
[3] = Acute toxicity in mouse administered as single ip dose; format: organism-based; details: in vivo

| Compound | MIC [1] [µg/mL] | LD50 [2] [mg/kg] | MIC (Mycobacterium avium) [µg/mL] | MIC (Mycolicibacter terrae) [µg/mL] | LD50 [3] [mg/kg] |
| --- | --- | --- | --- | --- | --- |
| C(=C\c1cncnc1-c1ccc(-c2ccccc2)s1)/c1ccc(-c2ccccc2)cc1 | 12.5 (≈ 30 µM) |  |  |  |  |
| c1csc(-c2ccncn2)c1 | 12.5 (≈ 77.1 µM) |  |  |  |  |
| C(=C\c1cncnc1-c1ccc(-c2cccs2)s1)/c1ccc(-c2ccccc2)cc1 | 1.5 (≈ 3.55 µM) | 78 | 0.7 (≈ 1.66 µM) | 0.7 (≈ 1.66 µM) |  |
| C(=C\c1cncnc1-c1ccco1)/c1ccc(-c2ccccc2)cc1 | 12.5 (≈ 38.5 µM) |  |  |  |  |
| c1ccc(-c2ccc(-c3ccncn3)s2)cc1 | 12.5 (≈ 52.5 µM) |  |  |  |  |
| Brc1cncnc1-c1ccco1 | 1.5 (≈ 6.67 µM) | 405 | 0.7 (≈ 3.11 µM) | 0.7 (≈ 3.11 µM) |  |
| NNC(=O)c1ccncc1 [ISONIAZID] | 0.1 (≈ 0.729 µM) | 133 | 0.1 (≈ 0.729 µM) | 0.1 (≈ 0.729 µM) | 151 |
| C(=C\c1cncnc1-c1ccc(-c2ccccc2)s1)/c1ccccc1 | 12.5 (≈ 36.7 µM) |  |  |  |  |
| NC(=O)c1cnccn1 [PYRAZINAMIDE] | 12.5 (≈ 102 µM) |  |  |  | 1680 |
| C(=C\c1cncnc1-c1cccs1)/c1ccccc1 | 12.5 (≈ 47.3 µM) |  |  |  |  |
| Brc1cncnc1-c1cccs1 | 0.7 (≈ 2.9 µM) | 315 | 0.3 (≈ 1.24 µM) | 0.3 (≈ 1.24 µM) |  |
| C(=C\c1cncnc1-c1ccco1)/c1ccccc1 | 6.25 (≈ 25.2 µM) |  |  |  |  |
| C(=C\c1cncnc1-c1ccc(-c2cccs2)s1)/c1ccccc1 |  |  |  | 0.7 (≈ 2.02 µM) |  |
| c1csc(-c2ccc(-c3ccncn3)s2)c1 | 12.5 (≈ 51.2 µM) |  |  |  |  |
| C(=C\c1cncnc1-c1cccs1)/c1ccc(-c2ccccc2)cc1 | 12.5 (≈ 36.7 µM) |  |  |  |  |
| Brc1cncnc1-c1ccc(-c2cccs2)s1 |  |  |  | 0.7 (≈ 2.17 µM) |  |
| Brc1cncnc1-c1ccc(-c2ccccc2)s1 | 6.25 (≈ 19.7 µM) |  |  |  |  |

From ChEMBL document CHEMBL3297728, “Synthesis and antituberculosis activity of novel 5-styryl-4-(hetero)aryl-pyrimidines via combination of the Pd-catalyzed Suzuki cross-coupling and S(N)(H) reactions” (Bioorg Med Chem Lett, 2014)
